Data: BindingDB's records for doi:10.1016/s0960-894x(01)00019-1 (Glaxowellcome Medicines Research Centre, 2001)

Experiment: Inhibitory activity against influenza A sialidase (Aichi)

Row | Compound | IC50 [nM]
1 | CCCN(CCC)C(=O)[C@@H]1OC(C(=O)O)=C[C@@H](N)[C@H]1NC(C)=O [(4R,5R,6R)-5-Acetylamino-4-amino-6-dipropylcarbamoyl-5,6-dihydro-4H-pyran-2-carboxylic acid] | 140
2 | CCCN(CCc1ccccc1)C(=O)[C@@H]1OC(C(=O)O)=C[C@@H](O)[C@H]1NC(C)=O [(4R,5R,6R)-5-Acetylamino-4-hydroxy-6-(phenethyl-propyl-carbamoyl)-5,6-dihydro-4H-pyran-2-carboxylic acid] | 17
3 | CCCN(CCc1ccccc1)C(=O)[C@@H]1OC(C(=O)O)=C[C@H](N)[C@H]1NC(=O)C1CC1 [(4S,5R,6R)-4-Amino-5-(cyclopropanecarbonyl-amino)-6-(phenethyl-propyl-carbamoyl)-5,6-dihydro-4H-pyran-2-carboxylic acid] | 50
4 | CCCC(=O)N[C@@H]1[C@@H](N)C=C(C(=O)O)O[C@H]1C(=O)N(CCC)CCc1ccccc1 [(4S,5R,6R)-4-Amino-5-butyrylamino-6-(phenethyl-propyl-carbamoyl)-5,6-dihydro-4H-pyran-2-carboxylic acid] | 43000
5 | CCCN(CCc1ccccc1)C(=O)[C@@H]1OC(C(=O)O)=C[C@H](N)[C@H]1NC(=O)C(F)(F)F [(4S,5R,6R)-4-Amino-6-(phenethyl-propyl-carbamoyl)-5-(2,2,2-trifluoro-acetylamino)-5,6-dihydro-4H-pyran-2-carboxylic acid] | 3
6 | CCCN(CCc1ccccc1)C(=O)[C@@H]1OC(C(=O)O)=C[C@H](N)[C@H]1NC(=O)CC [(4S,5R,6R)-4-Amino-6-(phenethyl-propyl-carbamoyl)-5-propionylamino-5,6-dihydro-4H-pyran-2-carboxylic acid] | 0.7
7 | CCCN(CCC)C(=O)[C@@H]1OC(C(=O)O)=C[C@H](N)[C@H]1NC(=O)C(F)(F)F [(4S,5R,6R)-4-Amino-6-dipropylcarbamoyl-5-(2,2,2-trifluoro-acetylamino)-5,6-dihydro-4H-pyran-2-carboxylic acid] | 0.3
8 | CCCN(CCC)C(=O)[C@@H]1OC(C(=O)O)=C[C@H](N)[C@H]1NC(=O)C(C)C [(4S,5R,6R)-4-Amino-6-dipropylcarbamoyl-5-isobutyrylamino-5,6-dihydro-4H-pyran-2-carboxylic acid] | 17000
9 | CCCN(CCC)C(=O)[C@@H]1OC(C(=O)O)=C[C@H](N)[C@H]1NS(C)(=O)=O [(4S,5R,6R)-4-Amino-6-dipropylcarbamoyl-5-methanesulfonylamino-5,6-dihydro-4H-pyran-2-carboxylic acid] | 3000
10 | CCCN(CCC)C(=O)[C@@H]1OC(C(=O)O)=C[C@H](N)[C@H]1NC(=O)CC [(4S,5R,6R)-4-Amino-6-dipropylcarbamoyl-5-propionylamino-5,6-dihydro-4H-pyran-2-carboxylic acid] | 5
11 | CCCN(CCc1ccccc1)C(=O)[C@@H]1OC(C(=O)O)=C[C@H](O)[C@H]1NC(C)=O [(4S,5R,6R)-5-Acetylamino-4-hydroxy-6-(phenethyl-propyl-carbamoyl)-5,6-dihydro-4H-pyran-2-carboxylic acid] | 7
12 | CCCN(CCC)C(=O)[C@@H]1OC(C(=O)O)=C[C@H](NCC)[C@H]1NC(C)=O [(4S,5R,6R)-5-Acetylamino-6-dipropylcarbamoyl-4-ethylamino-5,6-dihydro-4H-pyran-2-carboxylic acid] | 420
13 | CCCN(CCC)C(=O)[C@@H]1OC(C(=O)O)=C[C@H](NC)[C@H]1NC(C)=O [(4S,5R,6R)-5-Acetylamino-6-dipropylcarbamoyl-4-methylamino-5,6-dihydro-4H-pyran-2-carboxylic acid] | 240
14 | CCCN(CCc1ccccc1)C(=O)[C@@H]1OC(C(=O)O)=CC[C@H]1NC(C)=O [(5R,6R)-5-Acetylamino-6-(phenethyl-propyl-carbamoyl)-5,6-dihydro-4H-pyran-2-carboxylic acid] | 7
